Data reported in the NIST ThermoML archive (doi:10.1021/je200854k).

Details: Liquid, Capillary tube (Ostwald / Ubbelohde) method

FCC(F)(F)F [1,1,1,2-tetrafluoroethane]
viscosity [mPa·s]
Details	1000 kPa	2000 kPa	5000 kPa	10000 kPa	15000 kPa	20000 kPa	25000 kPa	30000 kPa	35000 kPa	40000 kPa
258.15 K	0.3251	–	0.3468	0.3675	0.3885	0.4094	0.4309	0.4502	0.4712	0.4996
278.14 K	0.2536	–	0.2678	0.2859	0.3033	0.3209	0.3381	0.3543	0.3712	0.3885
298.14 K	0.1962	–	0.2108	0.2273	0.2421	0.2567	0.2716	0.2876	0.3017	0.3169
318.13 K	–	0.1549	0.1656	0.1828	0.197	0.2111	0.2254	0.2393	0.2511	0.2647
338.13 K	–	0.1152	0.1288	0.1466	0.1618	0.1754	0.1893	0.2007	–	–

FC(F)(F)CC(F)(F)F [1,1,1,3,3,3-hexafluoropropane]
viscosity [mPa·s]
Details	1000 kPa	2000 kPa	5000 kPa	10000 kPa	15000 kPa	20000 kPa	25000 kPa	30000 kPa	35000 kPa	40000 kPa
253.15 K	0.5347	–	0.5621	0.5982	0.6363	0.671	0.7092	0.751	0.7898	0.8347
263.16 K	0.4612	–	0.4857	0.5184	0.5511	0.583	0.6154	0.6508	0.6835	0.7189
273.14 K	0.3999	–	0.4237	0.452	0.4821	0.5127	0.5412	0.5699	0.6012	0.6317
283.14 K	0.35	–	0.3722	0.3989	0.4259	0.4534	0.4798	0.5054	0.5325	0.5603
293.14 K	0.3074	–	0.3281	0.3534	0.3789	0.4034	0.4271	0.452	0.4757	0.5014
303.14 K	0.2708	–	0.2906	0.3141	0.3383	0.362	0.3838	0.4053	0.429	0.4513
313.14 K	0.2385	–	0.2585	0.2817	0.3041	0.3268	0.3467	0.3678	0.3897	0.41
323.13 K	0.21	–	0.2306	0.253	0.2742	0.295	0.3155	0.3353	0.3544	0.3744
333.13 K	0.1844	–	0.2046	0.2274	0.2481	0.2683	0.2868	0.3059	0.3248	0.3434
343.13 K	–	0.1669	0.1825	0.2044	0.2255	0.2447	0.2631	0.2805	0.2994	0.3154
353.13 K	–	0.1456	0.1618	0.1858	0.2064	0.2239	0.2427	0.2591	0.2761	0.2925
363.14 K	–	0.1248	0.1432	0.1663	0.1863	0.2051	0.2226	0.2395	0.2555	0.2713
373.14 K	–	0.1074	0.1287	0.1531	0.1718	0.1886	0.2056	0.2222	0.2366	0.2495

FC(F)CC(F)(F)F [1,1,1,3,3-pentafluoropropane]
viscosity [mPa·s]
Details	1000 kPa	2000 kPa	5000 kPa	10000 kPa	15000 kPa	20000 kPa	25000 kPa	30000 kPa	35000 kPa	40000 kPa
263.15 K	0.679	–	0.7113	0.7526	0.7951	0.8369	0.8778	0.9236	0.9686	1.015
273.14 K	0.5811	–	0.6083	0.6456	0.6801	0.717	0.7534	0.7902	0.8293	0.8685
283.14 K	0.4999	–	0.5252	0.5564	0.5887	0.6204	0.6519	0.6847	0.7184	0.7497
293.14 K	0.4344	–	0.4571	0.4859	0.5143	0.5433	0.5704	0.5998	0.6291	0.6589
303.14 K	0.3799	–	0.4011	0.4282	0.4534	0.4796	0.5048	0.5306	0.5573	0.5829
313.14 K	0.3343	–	0.3538	0.379	0.4035	0.427	0.4502	0.4745	0.4975	0.5211
323.13 K	0.2952	–	0.3139	0.3372	0.3595	0.3816	0.4029	0.425	0.4464	0.4694
333.13 K	0.2601	–	0.2788	0.3009	0.3232	0.3433	0.3637	0.3837	0.4048	0.4241
343.13 K	0.2301	–	0.2484	0.2698	0.29	0.31	0.3304	0.3488	0.3686	0.3872
353.13 K	0.2053	–	0.2226	0.2428	0.2627	0.2819	0.2999	0.3186	0.3361	0.3537
363.14 K	–	0.1838	0.1972	0.219	0.2389	0.2561	0.2746	0.2918	0.3084	0.325
373.14 K	–	0.1612	0.1758	0.1977	0.2165	0.2346	0.2518	0.2679	0.2839	–

Cc1ccccc1 [toluene]
viscosity [mPa·s]
Details	248.16 K	273.15 K	298.14 K	323.13 K	348.13 K
1000 kPa	1.19	0.7764	0.5581	0.4252	0.3356
10000 kPa	1.285	0.8352	0.6005	0.4563	0.3616
20000 kPa	1.397	0.9052	0.644	0.4908	0.3907
30000 kPa	1.521	0.9742	0.6909	0.5267	0.4198
40000 kPa	–	1.045	0.7419	0.5662	0.4497
